Experiments:
[1] = The drug is tested on Anaerococcus hydrogenalis strain: DSM7454 for biotransformation. The drug concentrations were measured before and after a 12-h incubation by liquid-chromatography-coupled mass spectrometry (LC–MS); settings: 2 µM
[2] = The drug is tested on Bacteroides coprophilus strain: DSM18228 for biotransformation. The drug concentrations were measured before and after a 12-h incubation by liquid-chromatography-coupled mass spectrometry (LC–MS); settings: 2 µM
[3] = The drug is tested on Bacteroides fragilis strain: HMW615 for biotransformation. The drug concentrations were measured before and after a 12-h incubation by liquid-chromatography-coupled mass spectrometry (LC–MS); settings: 2 µM
[4] = The drug is tested on Providencia rettgeri strain: DSM1131 for biotransformation. The drug concentrations were measured before and after a 12-h incubation by liquid-chromatography-coupled mass spectrometry (LC–MS); format: ADME; design: dose 2 uM, timepoint 0 vs 12 hours; settings: 2 µM
[5] = The drug is tested on Bacteroides finegoldii strain: DSM17565 for biotransformation. The drug concentrations were measured before and after a 12-h incubation by liquid-chromatography-coupled mass spectrometry (LC–MS); settings: 2 µM
[6] = The drug is tested on Bacteroides vulgatus strain: ATCC8482 for biotransformation. The drug concentrations were measured before and after a 12-h incubation by liquid-chromatography-coupled mass spectrometry (LC–MS); settings: phocaeicola vulgatus, 2 µM
[7] = The drug is tested on Odoribacter splanchnicus strain: fecal isolate for biotransformation. The drug concentrations were measured before and after a 12-h incubation by liquid-chromatography-coupled mass spectrometry (LC–MS); settings: 2 µM
[8] = The drug is tested on Bacteroides uniformis strain: ATCC8492 for biotransformation. The drug concentrations were measured before and after a 12-h incubation by liquid-chromatography-coupled mass spectrometry (LC–MS); settings: 2 µM
[9] = bacteroides intestinalis, 12 h, 2 µM
Description: The drug is tested on Bacteroides intestinalis strain: DSM17393 for biotransformation. The drug concentrations were measured before and after a 12-h incubation by liquid-chromatography-coupled mass spectrometry (LC–MS)

[10] = parabacteroides johnsonii, 12 h, 2 µM
Description: The drug is tested on Parabacteroides johnsonii strain: DSM18315 for biotransformation. The drug concentrations were measured before and after a 12-h incubation by liquid-chromatography-coupled mass spectrometry (LC–MS)

[11] = The drug is tested on Bifidobacterium ruminantium strain: fecal isolate for biotransformation. The drug concentrations were measured before and after a 12-h incubation by liquid-chromatography-coupled mass spectrometry (LC–MS); settings: 2 µM
[12] = The drug is tested on Collinsella intestinalis strain: DSM13280 for biotransformation. The drug concentrations were measured before and after a 12-h incubation by liquid-chromatography-coupled mass spectrometry (LC–MS); settings: 2 µM
[13] = The drug is tested on Bacteroides caccae strain: ATCC43185 for biotransformation. The drug concentrations were measured before and after a 12-h incubation by liquid-chromatography-coupled mass spectrometry (LC–MS); settings: 2 µM
[14] = bacteroides fragilis, 12 h, 2 µM
Description: The drug is tested on Bacteroides fragilis strain: DS-208 for biotransformation. The drug concentrations were measured before and after a 12-h incubation by liquid-chromatography-coupled mass spectrometry (LC–MS)

[15] = The drug is tested on Ruminococcus torques strain: ATCC27756 for biotransformation. The drug concentrations were measured before and after a 12-h incubation by liquid-chromatography-coupled mass spectrometry (LC–MS); format: ADME; design: dose 2 uM, timepoint 0 vs 12 hours; settings: 2 µM
[16] = The drug is tested on Bacteroides xylanisolvens strain: DSM18836 for biotransformation. The drug concentrations were measured before and after a 12-h incubation by liquid-chromatography-coupled mass spectrometry (LC–MS); settings: 2 µM
[17] = The drug is tested on Dorea formicigenerans strain: ATCC27755 for biotransformation. The drug concentrations were measured before and after a 12-h incubation by liquid-chromatography-coupled mass spectrometry (LC–MS); settings: 2 µM
[18] = The drug is tested on Bacteroides sp. WH2 strain: WH2 for biotransformation. The drug concentrations were measured before and after a 12-h incubation by liquid-chromatography-coupled mass spectrometry (LC–MS); settings: bacteroides sp. wh2, 12 h, 2 µM
[19] = akkermansia muciniphila, 12 h, 2 µM
Description: The drug is tested on Akkermansia muciniphila strain: ATCC BAA-835 for biotransformation. The drug concentrations were measured before and after a 12-h incubation by liquid-chromatography-coupled mass spectrometry (LC–MS)

[20] = The drug is tested on Providencia stuartii strain: ATCC25827 for biotransformation. The drug concentrations were measured before and after a 12-h incubation by liquid-chromatography-coupled mass spectrometry (LC–MS); settings: 2 µM

SMILES | Bacterial Biotransformation [1] | Bacterial Biotransformation [2] | Bacterial Biotransformation [3] | Bacterial Biotransformation [4] | Bacterial Biotransformation [5] | Bacterial Biotransformation [6] | Bacterial Biotransformation [7] | Bacterial Biotransformation [8] | Bacterial Biotransformation [9] | Bacterial Biotransformation [10] | Bacterial Biotransformation [11] | Bacterial Biotransformation [12] | Bacterial Biotransformation [13] | Bacterial Biotransformation [14] | Bacterial Biotransformation [15] | Bacterial Biotransformation [16] | Bacterial Biotransformation [17] | Bacterial Biotransformation [18] | Bacterial Biotransformation [19] | Bacterial Biotransformation [20]
Nc1nc(N)nc(-c2cc(Cl)ccc2Cl)n1.O=C(O)/C=C\C(=O)O [IRSOGLADINE MALEATE] | Compound NOT metabolized | Compound NOT metabolized | Compound NOT metabolized | Compound NOT metabolized | Compound NOT metabolized | Compound NOT metabolized | Compound NOT metabolized | Compound NOT metabolized | Compound NOT metabolized | Compound metabolized | Compound metabolized | Compound NOT metabolized | Compound NOT metabolized | Compound NOT metabolized | Compound NOT metabolized | Compound NOT metabolized | Compound NOT metabolized | Compound NOT metabolized | Compound NOT metabolized | Compound NOT metabolized
CCC(C)n1ncn(-c2ccc(N3CCN(c4ccc(OCC5COC(Cn6cncn6)(c6ccc(Cl)cc6Cl)O5)cc4)CC3)cc2)c1=O (stereo not given) [ITRACONAZOLE] | Compound NOT metabolized | Compound NOT metabolized | Compound NOT metabolized | Compound NOT metabolized | Compound NOT metabolized | Compound NOT metabolized | Compound NOT metabolized | Compound NOT metabolized | Compound NOT metabolized | Compound NOT metabolized | Compound NOT metabolized | Compound NOT metabolized | Compound NOT metabolized | Compound NOT metabolized | Compound NOT metabolized | Compound NOT metabolized | Compound NOT metabolized | Compound NOT metabolized | Compound NOT metabolized | Compound NOT metabolized
N#Cc1ccc(C(c2ccc(C#N)cc2)n2cncn2)cc1 [LETROZOLE] | Compound NOT metabolized | Compound NOT metabolized | Compound NOT metabolized | Compound NOT metabolized | Compound NOT metabolized | Compound NOT metabolized | Compound NOT metabolized | Compound NOT metabolized | Compound NOT metabolized | Compound NOT metabolized | Compound NOT metabolized | Compound NOT metabolized | Compound NOT metabolized | Compound NOT metabolized | Compound NOT metabolized | Compound NOT metabolized | Compound NOT metabolized | Compound NOT metabolized | Compound NOT metabolized | Compound NOT metabolized
